Test results published in PubChem BioAssay AID330 (DTP/NCI, 2004).
Values joined by “and” are separate entries in the source; they are usually repeats but may differ in a detail not shown here. Identical values can stand only once. Toxic doses and inconclusive results are not listed. How the source made its calls: active means survival T/C of 150% or more; inactive means T/C below 125% in these data.

Tested on: P388 leukemia ip, CD2F1 mice, survival T/C
Assay: NCI In Vivo Anticancer Drug Screen. Data for tumor model P388 Leukemia (intraperitoneal) in CD2F1 (CDF1) mice
Conditions: endpoint: median survival time, higher = longer survival
In short: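 Mice carrying the transplanted tumor received test compound or vehicle. Survival was recorded in each group, and the value is the treated-group measurement divided by that of the vehicle-treated control group.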

[1] = dose: 50.0 mg/kg/injection, schedule: Q04DX003 (ip), vehicle: Klucel (hydroxypropylcellulose) (HPC)
[2] = dose: 60.0 mg/kg/injection, schedule: Q01DX005 (ip), vehicle: saline with Tween-80
[3] = dose: 50.0 mg/kg/injection, schedule: Q01DX005 (ip), vehicle: saline with Tween-80
[4] = dose: 100.0 mg/kg/injection, schedule: Q01DX005 (ip), vehicle: saline with Tween-80
[5] = dose: 200.0 mg/kg/injection, schedule: Q01DX005 (ip), vehicle: saline with Tween-80
[6] = dose: 100.0 mg/kg/injection, schedule: Q04DX003 (ip), vehicle: saline with Tween-80
[7] = dose: 200.0 mg/kg/injection, schedule: Q04DX003 (ip), vehicle: saline with Tween-80
[8] = dose: 400.0 mg/kg/injection, schedule: Q04DX003 (ip), vehicle: saline with Tween-80
[9] = dose: 50.0 mg/kg/injection, schedule: Q01DX009 (ip), vehicle: saline
[10] = dose: 100.0 mg/kg/injection, schedule: Q01DX009 (ip), vehicle: saline
[11] = dose: 200.0 mg/kg/injection, schedule: Q01DX009 (ip), vehicle: saline
[12] = dose: 100.0 mg/kg/injection, schedule: Q01DX009 (ip), vehicle: Klucel (hydroxypropylcellulose) (HPC)
[13] = dose: 200.0 mg/kg/injection, schedule: Q01DX009 (ip), vehicle: Klucel (hydroxypropylcellulose) (HPC)
[14] = dose: 12.5 mg/kg/injection, schedule: Q01DX009 (ip), vehicle: Klucel (hydroxypropylcellulose) (HPC)
[15] = dose: 25.0 mg/kg/injection, schedule: Q01DX009 (ip), vehicle: Klucel (hydroxypropylcellulose) (HPC)
[16] = dose: 50.0 mg/kg/injection, schedule: Q01DX009 (ip), vehicle: Klucel (hydroxypropylcellulose) (HPC)

Measured: T/C

C=CC(=NC(C)(C)C)Nc1ccccc1C
inactive: dose: 0.79 mg/kg/injection, schedule: Q01DX009 (ip), vehicle: saline 99 % of control and 103 % of control and 90 % of control | dose: 1.56 mg/kg/injection, schedule: Q01DX009 (ip), vehicle: saline 101 % of control and 89 % of control | dose: 12.5 mg/kg/injection, schedule: Q01DX009 (ip), vehicle: saline 99 % of control

CCN(CC)C(=S)SS(C)(=O)=O
inactive: dose: 25.0 mg/kg/injection, schedule: Q04DX003 (ip), vehicle: Klucel (hydroxypropylcellulose) (HPC) 99 % of control | [1] 107 % of control | dose: 100.0 mg/kg/injection, schedule: Q04DX003 (ip), vehicle: Klucel (hydroxypropylcellulose) (HPC) 107 % of control

O=[N+]([O-])c1cn(CCNc2c3ccccc3nc3ccccc23)cn1
inactive: [2] 112 % of control

Cc1ccc(/C=C/C(=O)C(CN(C)C)CN(C)C)cc1
inactive: dose: 1.56 mg/kg/injection, schedule: Q01DX005 (ip), vehicle: saline 100 % of control | dose: 3.12 mg/kg/injection, schedule: Q01DX005 (ip), vehicle: saline 106 % of control

Oc1ccc(O)c2c1C1(Cl)C(Cl)=C(Cl)C2(Cl)C1(Cl)Cl
inactive: dose: 100.0 mg/kg/injection, schedule: Q04DX003 (ip), vehicle: other 100 % of control | dose: 200.0 mg/kg/injection, schedule: Q04DX003 (ip), vehicle: other 104 % of control | dose: 400.0 mg/kg/injection, schedule: Q04DX003 (ip), vehicle: other 113 % of control

CN(C)CCCNc1cc(/C=C/c2ccc([N+](=O)[O-])cc2)nc2ccccc12
inactive: [3] 106 % of control | [4] 106 % of control | [5] 106 % of control

CC(O)CC1=Nc2c(nc(N)[nH]c2=O)N(C)C1 (stereo not given)
inactive: [6] 98 % of control | [7] 97 % of control | [8] 113 % of control

Cc1c(C(=O)O)c(O)cc2c1C(=O)c1c(O)c(C3OC(CO)C(O)C(O)C3O)c(O)c(O)c1C2=O (stereo not given)
inactive: dose: 0.12 mg/kg/injection, schedule: Q01DX009 (ip), vehicle: saline 108 % of control | dose: 0.25 mg/kg/injection, schedule: Q01DX009 (ip), vehicle: saline 104 % of control | dose: 0.5 mg/kg/injection, schedule: Q01DX009 (ip), vehicle: saline 110 % of control | dose: 1.0 mg/kg/injection, schedule: Q01DX009 (ip), vehicle: saline 103 % of control | dose: 2.0 mg/kg/injection, schedule: Q01DX009 (ip), vehicle: saline 101 % of control

Cc1ccc(N2[C@H]3CCCN3c3ccc(C)cc3[C@@H]2C(F)(F)F)cc1
inactive: [3] 110 % of control | [4] 100 % of control | [5] 100 % of control

Nc1c(I)cc(CC(N)C(=O)O)cc1I (stereo not given)
inactive: [9] 94 % of control | [10] 86 % of control | [11] 89 % of control

COc1cccc(C2SCC(=O)N2c2nncs2)c1OC (stereo not given)
inactive: dose: 60.0 mg/kg/injection, schedule: Q01DX005 (ip), vehicle: Klucel (hydroxypropylcellulose) (HPC) 106 % of control | dose: 120.0 mg/kg/injection, schedule: Q01DX005 (ip), vehicle: Klucel (hydroxypropylcellulose) (HPC) 95 % of control | dose: 240.0 mg/kg/injection, schedule: Q01DX005 (ip), vehicle: Klucel (hydroxypropylcellulose) (HPC) 98 % of control

O=C1NC(=O)C(c2ccccc2)(c2ccc(O)cc2)N1 (stereo not given)
inactive: [6] 115 % of control | [7] 110 % of control | [8] 115 % of control

O=C(O)C1=C(/C=C/Cl)CC1
inactive: dose: 50.0 mg/kg/injection, schedule: Q01DX009 (ip), vehicle: saline with Tween-80 102 % of control | dose: 100.0 mg/kg/injection, schedule: Q01DX009 (ip), vehicle: saline with Tween-80 96 % of control | dose: 200.0 mg/kg/injection, schedule: Q01DX009 (ip), vehicle: saline with Tween-80 99 % of control

CCOC(=O)/C(=C/c1ccco1)C(C)=O
inactive: [12] 102 % of control | [13] 110 % of control

CC(C)=CCCC(C)C1(O)CCC(C)=CC1=O (stereo not given)
inactive: dose: 12.5 mg/kg/injection, schedule: Q01DX005 (ip), vehicle: Klucel (hydroxypropylcellulose) (HPC) 96 % of control | dose: 25.0 mg/kg/injection, schedule: Q01DX005 (ip), vehicle: Klucel (hydroxypropylcellulose) (HPC) 99 % of control | dose: 50.0 mg/kg/injection, schedule: Q01DX005 (ip), vehicle: Klucel (hydroxypropylcellulose) (HPC) 94 % of control | dose: 100.0 mg/kg/injection, schedule: Q01DX005 (ip), vehicle: Klucel (hydroxypropylcellulose) (HPC) 99 % of control

N=c1c2ncn(C3OC(CO)C(O)C3O)c2ncn1N (stereo not given)
inactive: dose: 25.0 mg/kg/injection, schedule: Q01DX005 (ip), vehicle: water 110 % of control | dose: 50.0 mg/kg/injection, schedule: Q01DX005 (ip), vehicle: water 107 % of control | dose: 100.0 mg/kg/injection, schedule: Q01DX005 (ip), vehicle: water 105 % of control | dose: 200.0 mg/kg/injection, schedule: Q01DX005 (ip), vehicle: water 98 % of control | dose: 400.0 mg/kg/injection, schedule: Q01DX005 (ip), vehicle: water 108 % of control

C=CCc1ccccc1OC
inactive: dose: 50.0 mg/kg/injection, schedule: Q04DX003 (ip), vehicle: saline 100 % of control | dose: 100.0 mg/kg/injection, schedule: Q04DX003 (ip), vehicle: saline 95 % of control | dose: 200.0 mg/kg/injection, schedule: Q04DX003 (ip), vehicle: saline 100 % of control

O=C1CN(C(=O)Nc2ccc(Cl)c(Cl)c2)C(=S)N1
inactive: dose: 6.25 mg/kg/injection, schedule: Q01DX009 (ip), vehicle: Klucel (hydroxypropylcellulose) (HPC) 88 % of control | [14] 101 % of control | [15] 103 % of control and 90 % of control

Cc1cc(=O)n(Nc2ccccc2)c(O)c1C#N
inactive: [16] 100 % of control | [12] 94 % of control | [13] 100 % of control

CC1=C(C)C(=O)O[C@@H]([C@](C)(O)[C@]2(O)CC[C@@]3(O)[C@@H]4C[C@H]5O[C@]56CC=CC(=O)[C@]6(C)[C@H]4CC[C@]23C)C1
inactive: [14] 109 % of control and 110 % of control | dose: 12.5 mg/kg/injection, schedule: Q04DX003 (ip), vehicle: Klucel (hydroxypropylcellulose) (HPC) 122 % of control | [15] 107 % of control and 124 % of control | [16] 100 % of control | [1] 124 % of control

CCN(CC)CCCNc1nccc2c(OC)cccc12
inactive: dose: 25.0 mg/kg/injection, schedule: Q01DX005 (ip), vehicle: saline 93 % of control | dose: 50.0 mg/kg/injection, schedule: Q01DX005 (ip), vehicle: saline 89 % of control

COCc1ccnn1-c1ccccc1C
inactive: [2] 97 % of control | dose: 120.0 mg/kg/injection, schedule: Q01DX005 (ip), vehicle: saline with Tween-80 97 % of control | dose: 240.0 mg/kg/injection, schedule: Q01DX005 (ip), vehicle: saline with Tween-80 104 % of control

CC(C)=CCC/C(C)=C/COC(=O)C1C(C=C(C)C)C1(C)C (stereo not given)
inactive: [9] 100 % of control | [10] 100 % of control | [11] 116 % of control | dose: 400.0 mg/kg/injection, schedule: Q01DX009 (ip), vehicle: saline 101 % of control

CO/N=C1/C=CC(Cl)=C/C1=C(\c1ccccc1Cl)C(C#N)c1ccccc1Cl (stereo not given)
inactive: dose: 100.0 mg/kg/injection, schedule: Q01DX001 (ip), vehicle: saline with Tween-80 94 % of control | dose: 200.0 mg/kg/injection, schedule: Q01DX001 (ip), vehicle: saline with Tween-80 102 % of control | dose: 400.0 mg/kg/injection, schedule: Q01DX001 (ip), vehicle: saline with Tween-80 92 % of control
